The values that follow come from patent US8263065B2, “Tumor suppression using human placental perfusate and human placenta-derived intermediate natural killer cells” (Anthrogenesis Corporation, priority 2007, dated 2012).

The test system of series [1] is cultured PINK cells. In words: qRT-PCR gene expression in lenalidomide- or pomalidomide-treated cultured PINK cells. It is filed as cell-based, human. To be noted: treated vs untreated cultured PINK cells. The source says:
RNA isolation and purification.
Quantitative real-time (qRT-PCR) analysis.
In general terms: Real-time PCR tracks product formation cycle by cycle.

The conditions of series [2]: cited from earlier work.

In the case of `Nc1cccc2c1C(=O)N(C1CCC(=O)NC1=O)C2=O` (racemic) [pomalidomide, 4-(Amino)-2-(2,6-dioxo(3-piperidyl))-isoindoline-1,3-dione], in series [1], the “Fold change of gene expression, LTA” value came to 2.68 fold.

As for `Nc1cccc2c1CN(C1CCC(=O)NC1=O)C2=O` (stereo not shown) [Form B, 3-(4-amino-1-oxo-1,3 dihydro-isoindol-2-yl)-piperidene-2,6-dione], the “stability in aqueous solvent systems” value in series [2] (aqueous solvent systems) is given as “converts to Form E in aqueous solvent systems”.

As to `Nc1cccc2c1CN(C1CCC(=O)NC1=O)C2=O` (stereo not shown) [Form C, 3-(4-amino-1-oxo-1,3 dihydro-isoindol-2-yl)-piperidene-2,6-dione], the “stability at higher relative humidities” value in series [2] was “can convert to Form B”.

As to `Nc1cccc2c1CN(C1CCC(=O)NC1=O)C2=O` (stereo not shown) [Form D, 3-(4-amino-1-oxo-1,3 dihydro-isoindol-2-yl)-piperidene-2,6-dione], the “stability at higher relative humidities” value in series [2] is given as “will typically convert to Form B”.
